# Entries after “also recorded” stand apart in the source; their conditions may differ. Like-named read-outs stand apart in the source and are kept apart here. Ends that are not written are not given here.
# B1: PTH: Parathyroid hormone peptide tested in Example 4; which form (1-84 or 1-34) is not stated (peptide, UniProt P01270 32-115, looked up)
# Parathyroid hormone: SVSEIQLMHNLGKHLNSMERVEWLRKKLQDVHNFVALGAPLAPRDAGSQRPRKKEDNVLVESHEKSLGEADKADVNVLTKAKSQ
# modifications: Parathyroid hormone
# How the values were obtained:
# ovariectomized rat model = details: cited from earlier work
# [1] = system: Type II collagen production by human chondrocytes; assay: Cartilage growth model: human chondrocytes in alginate beads, type II collagen ELISA; type: cell-based
# Protocol: A. Approximately 3 million human chondrocyte cells (Cell Applications, Inc., San Diego, Calif.) encapsulated in alginate beads were received in 25 mL total volume of re-differentiated medium. Human chondrocytes in alginate beads produce their phenotypic markers such as aggrecan and type II collagen unlike in monolayer culture where chondrocytes lose their phenotypic characteristics and de-differentiate to fibroblast-like cells. Alginate based cell system was pursued to assess type II collagen expression as result of PTH dosing and therefore indication of any cartilage growth.
# B. The cell-containing alginate bead suspension was transferred from cell culture flask to 50 mL conical tubes. A volume of 500 μL (˜62,500 cells per well) suspension was dispensed per well in 24-well plates. Samples were added to each well and final volume was brought to one milliliter with appropriate growth media. Controls included cells treated with re-differentiated media as positive control (Cell Applications, Inc., San Diego, Calif.), cells treated with chondrocyte growth media (Cell Applications, Inc., San Diego, Calif.) and basal media (Cell Applications, Inc., San Diego, Calif.) as negative controls.
# C. Plates were swirled gently to allow homogenous mixture of each sample. Plates were placed in 37° C., 5% CO2 incubator. Human chondrocytes were grown for up to 12 days on longer. Appropriate growth media were replaced every second or third day. Alginate beads were prepared for type II collagen extraction on the last day of the experiment and extracted collagen was quantified using Native Type II Collagen Detection Kit (Chondrex Inc., Redmond Wash.). Pictures of cells immediately following the samples application and at several time points during the course of experiment were taken using the Olympus CK40 microscope and Nikon Cool Pix 4500 digital camera.
# D. A capture ELISA kit (Native Type II Collagen Detection Kit, Chondrex Inc.) was used to measure native type II collagen. For measuring glycosaminoglycans, the kit used was Blyscan Sulfated Glycosaminoglycan Assay kit (Accurate Chemical & Scientific Corp.).
# Next, the alginate-based cell system (cartilage growth model; refer to Example 2) was used to determine whether PTH dosing could stimulate chondrocytes to produce cartilage. […] Type II collagen is a major component of the extracelluar matrix of nasal cartilage and therefore was used as a molecular marker for cartilage growth in this assay.
# The cell-containing alginate beads were incubated in the presence of various test solutions for 12 days at 37° C., 5% CO2. After the incubation, the alginate beads were processed using an extraction method in order to quantify the production of type II collagen.
# [2] = aqueous solution at physiologic pH; cited from earlier work
# aminopeptidases = details: cited from earlier work
# [3] = rats, intraduodenal, with 1% (w/v) saline dispersion of polycarbophil; cited from earlier work
# [4] = anesthetized rats, cited from earlier work
# ciliary motility = details: cited from earlier work
# [5] = system: human chondrocyte cell monolayer; assay: Cell proliferation model: human chondrocyte monolayer, MTT assay; type: cell-based; details: MTT at t=0 and after 4 days at 37° C./5% CO2
# Protocol: A. Chondrocyte monolayers (Cell Applications, Inc., San Diego, Calif.) derived from normal human cartilage were adhered on to a 24-well plate and shipped following the first doubling. Approximately 16000 cells per well were expected at the time the cells were received. Two plates were treated identically with PTH and appropriate control samples. Controls included cells treated with chondrocyte growth media for positive control (Cell Applications, Inc., San Diego, Calif.) and cells treated with basal media for negative control (Cell Applications, Inc., San Diego, Calif.).
# B. After the cells are treated, one of the two plates was analyzed for cell viability (t=0 sample). The second plate was placed at 37° C., 5% CO2 incubator for 4 days, after which the plates were analyzed using the MTT assay.
# C. MTT is a cell-permeable tetrazolium salt which is reduced by mitochondrial dehydrogenase activity to an insoluble colored formazan by viable cells with intact mitochondrial function or by nonmitochondrial NAD(P)H dehydrogenase activity from cells capable of generating a respiratory burst. […] We have employed a MTT reagent kit prepared by MatTek Corp for their units as in indicator of cell proliferation.
# A human chondrocyte cell monolayer model was employed to examine cell proliferation (refer to Example 2). […]
molecule,measurement,setting,value
Ser Val Ser Glu Ile Gln Leu Met His Asn Leu Gly Lys His Leu Asn Ser Met Glu Arg Val Glu Trp Leu Arg Lys Lys Leu Gln Asp Val-NH2 (SVSEIQLMHNLGKHLNSMERVEWLRKKLQDV-NH2) [hPTH-(1-31)-NH2],restoration of bone loss,ovariectomized rat model,fully active
insulin-like growth factor I [IGF-I],type II collagen production,[1]; 5 μg IGF-I (positive control),greater than 1.2 pg per culture
CCN(CC)/[N+]([O-])=N/O.CCNCC [diethylamine/NO],rate (time) of NO release,[2],< 3 min
CC(C)CC(N)B(O)O (stereo not drawn) [boro-leucine],effectiveness in enzyme inhibition relative to bestatin,aminopeptidases,more than 100 times
same,effectiveness in enzyme inhibition relative to puromycin,aminopeptidases,"more than 1,000 times"
calcitonin,type II collagen production,[1]; 20 μg calcitonin,no effect
same,type II collagen production,[1]; 200 μg calcitonin,no effect
"9-desglycinamide, 8-arginine vasopressin",increase of bioavailability compared to aqueous solution without polymer,[3],3-5 fold
"NCCN(CCN)/[N+]([O-])=N/O [diethylenetriamine/NO (DETANO), diethylenetriamine/NO]",rate (time) of NO release,[2],approximately 20 hours
human growth hormone: human growth hormone given nasally with or without N-acetyl-L-cysteine,nasal bioavailability of human growth hormone,[4]; with N-acetyl-L-cysteine (ACS),12.2%
same,nasal bioavailability of human growth hormone,[4]; without N-acetyl-L-cysteine,7.5%
2-alkyl-4-hydroxyquinolines [pyo compound],concentration producing ciliostasis / inhibiting ciliary motility,ciliary motility,50 µg/mL
B1,type II collagen production,"[1]; 20 μg PTH in citrate buffer, 12 days at 37° C., 5% CO2",did not induce a substantial production of type II collagen
same,type II collagen production,"[1]; 20 μg PTH with permeation enhancers, 12 days",did not induce a substantial production of type II collagen
same,type II collagen production,"[1]; 200 μg PTH in simple formulation, 12 days",significant increase in type II collagen; also recorded: modest amounts of type II collagen production
same,type II collagen production,"[1]; high concentration of PTH (200 μg) with permeation enhancers, 12 days",essentially no production of type II collagen; also recorded: did not induce any cartilage growth
same,chondrocyte proliferation (MTT assay),[5]; PTH in simple formulation (citrate buffer),did not stimulate chondrocyte proliferation
same,chondrocyte proliferation (MTT assay),[5]; PTH with permeation enhancers of Table 2,did not stimulate chondrocyte proliferation
